Source: article PMC12603070, “A high-throughput screening approach to discover potential colorectal cancer chemotherapeutics: repurposing drugs to identify novel disruptors of 14-3-3 proteins” (Cell Death & Disease, 2025)
Structures can show the parent of a compound that is named as a salt. Where two headings read alike, the source gives them in different places.

Tests used:
[1] = molecular target: T1, 14-3-3ζ:BAD-112-136F interactions (Homo sapiens, UniProt P63104); test: BRET sensor screen for disruption of 14-3-3ζ-Rluc8:BAD-112-136F-mCitrine in living NIH-3T3 cells; type: cell-based, murine; design: inhibition: dose or concentration left out as unconfirmed; conditions: for inhibition at 20 µM / inhibition: NIH3T3, 3 h, read-out: BRET reduction on NIH-3T3
T1 construct: expressed in transfected cells; host or cells: NIH-3T3 fibroblasts, bi-directional pBI-CMV1 plasmid
T1 sequence (P63104 1-245): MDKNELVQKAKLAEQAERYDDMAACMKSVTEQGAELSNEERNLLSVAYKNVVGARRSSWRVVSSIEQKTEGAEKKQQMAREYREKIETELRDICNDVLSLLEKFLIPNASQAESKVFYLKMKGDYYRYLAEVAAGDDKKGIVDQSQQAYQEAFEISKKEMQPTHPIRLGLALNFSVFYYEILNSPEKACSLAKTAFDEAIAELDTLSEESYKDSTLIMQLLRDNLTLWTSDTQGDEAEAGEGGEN
Description: The Z’-score, which evaluates the robustness of an HTS assay readout, was calculated according to standard protocols. For the HTS, 384-well plates were coated with 100 μg/mL poly-L-ornithine (Sigma, Missouri, United States; #P3655) overnight at 37 °C, followed by rinsing with sterilized water. NIH-3T3 cells were transfected with the BRET sensor two days prior to experimentation, followed by replating onto the pre-coated 384-well plates at a density of 20,000 cells/well. After 24 h of incubation at 37 °C, growth media was replaced by Krebs buffer (pH 7.4).

NIH-3T3 cells = test: Hoechst/propidium iodide cell death assay in NIH-3T3; type: cell-based; conditions: for cytotoxicity at 20 µM: Mus musculus, NIH3T3, 24 h, read-out: Percentage of cell death % 24h NIH3t3
Text: (§1) A high-content imaging system (PerkinElmer; Operetta CLS), was used to quantify cell death and apoptosis by calculating the number of propidium iodide-positive cells relative to Hoechst-positive cells, and the number of Annexin V-positive cells relative to Hoechst-positive cells, respectively.

HT-29 cells = test: Hoechst/propidium iodide cell death assay in HT-29; type: cell-based, human; conditions: Homo sapiens
Text: as §1

[2] = NIH-3T3 cells, hits from the primary screen
[3] = HT-29, 24 h, read-out: Percentage of cell death % 24h HT-29
[4] = HT-29, 48 h, read-out: Percentage of cell death % 48h, HT-29
[5] = NIH-3T3 expressing BRET sensor, 20 µM, 3 h
[6] = HT-29, 24 h, 20 µM, 24 h, read-out: Percentage of cell death % 24h HT-29
[7] = HT-29, 48 h, HT-29, 48h, 20 μM, read-out: Percentage of cell death % 48h, HT-29

SMILES | inhibition [1, 2] [%] | inhibition at 20 µM [1, 5] [%] | inhibition at 20 µM [1] [%] | BRET reduction on NIH-3T3 [1, 2] | cytotoxicity at 20 µM (NIH-3T3 cells) [%] | Percentage of cell death % 48h, NIH3T3 (NIH-3T3 cells) [%] | cytotoxicity at 20 µM (HT-29 cells; [3]) [%] | cytotoxicity at 20 µM (HT-29 cells; [4]) [%] | cytotoxicity at 20 µM (NIH-3T3 cells; 20 µM, 24 h) [%] | cytotoxicity at 20 µM (HT-29 cells; [6]) [%] | cytotoxicity at 20 µM (HT-29 cells; [7]) [%]
COc1cc(C)c(/C=C/C(C)=C/C=C/C(C)=C/C(=O)O)c(C)c1C [Acitretin] |  |  | 31.9 | 31.8517 | 0.791 | 1.816 | 0.862 | 1.82 |  |  | 
C[C@@H](O[C@H]1OCCN(Cc2n[nH]c(=O)[nH]2)[C@H]1c1ccc(F)cc1)c1cc(C(F)(F)F)cc(C(F)(F)F)c1 [Aprepitant] | 26.6 | 26.6 |  |  |  | 2.577 |  |  | 1.15 | 1.47 | 3.76
C=C[C@@H]1C[C@]1(NC(=O)[C@@H]1C[C@@H](Oc2ncc(OC)c3ccc(Cl)cc23)CN1C(=O)[C@@H](NC(=O)OC(C)(C)C)C(C)(C)C)C(=O)NS(=O)(=O)C1CC1 [Asunaprevir (BMS-650032), Asunaprevir] | 41.4 | 41.4 |  |  |  | 2.12 |  |  | 3.04 | 1.15 | 3.86
CC(C)(C)CC(C)(C)c1ccc(OCCOCC[N+](C)(C)Cc2ccccc2)cc1 [Benzethonium Chloride] |  |  |  |  | 51.9 | 51.9198 | 43.5 | 90.4 |  |  | 
C=C(c1ccc(C(=O)O)cc1)c1cc2c(cc1C)C(C)(C)CCC2(C)C [Bexarotene] | 29.5 | 29.5 |  |  |  | 2.3561 |  |  | 3.81 | 0.535 | 4.19
c1ccc(-c2ccc(C(c3ccccc3)n3ccnc3)cc2)cc1 (stereo not shown) [Bifonazole] | 32.1 | 32.1 |  |  |  | 0.5325 |  |  | 0.428 | 1.45 | 2.62
CCN1CCN(c2cc(-c3ccc(F)cc3)c3c(n2)CCCCCC3)CC1 [Blonanserin] | 25.1 | 25.1 |  |  |  | 1.273 |  |  | 1.45 | 2.57 | 15.5
Clc1ccc(CCC(Cn2ccnc2)Sc2c(Cl)cccc2Cl)cc1 (stereo not shown) [Butoconazole nitrate] | 45.1 | 45.1 |  |  |  | 1.36 |  |  | 1.23 | 1.75 | 3.36
C=C1/C(=C\C=C2/CCC[C@]3(C)[C@@H]([C@H](C)CCCC(C)(C)O)CC[C@@H]23)C[C@@H](O)C[C@@H]1O [Calcitriol] |  |  |  |  |  | 1.321 |  |  | 1.56 | 0.461 | 0.982
C(=C\c1ccccc1)/CN1CCN(C(c2ccccc2)c2ccccc2)CC1 [Cinnarizine] |  |  |  |  |  | 0.3398 |  |  | 0.412 | 0.381 | 1.26
Clc1ccc(CSC(Cn2ccnc2)c2ccc(Cl)cc2Cl)cc1 (stereo not shown) [Sulconazole Nitrate] |  |  |  |  |  | 9.7879 |  |  | 10.8 | 7.98 | 12.2

The next lines start with results.

inhibition [1, 2] [%] | inhibition at 20 µM [1, 5] [%] | SMILES | inhibition at 20 µM [1] [%] | BRET reduction on NIH-3T3 [1, 2] | cytotoxicity at 20 µM (NIH-3T3 cells) [%] | Percentage of cell death % 48h, NIH3T3 (NIH-3T3 cells) [%] | cytotoxicity at 20 µM (HT-29 cells; [3]) [%] | cytotoxicity at 20 µM (HT-29 cells; [4]) [%] | cytotoxicity at 20 µM (NIH-3T3 cells; 20 µM, 24 h) [%] | cytotoxicity at 20 µM (HT-29 cells; [6]) [%] | cytotoxicity at 20 µM (HT-29 cells; [7]) [%]
31.7 | 31.7 | C=C1/C(=C\C=C2/CCC[C@]3(C)[C@@H]([C@H](C)/C=C/[C@@H](O)C4CC4)CC[C@@H]23)C[C@@H](O)C[C@@H]1O [Calcipotriol] |  |  |  | 2.028 |  |  | 0.552 | 0.559 | 0.922
44.9 | 44.9 | CCOc1nc2cccc(C(=O)OC(C)OC(=O)OC3CCCCC3)c2n1Cc1ccc(-c2ccccc2-c2nnn[nH]2)cc1 (stereo not shown) [Candesartan Cilexetil] |  |  |  | 2.478 |  |  | 12.2 | 1.16 | 1.91
39.9 | 39.9 | COc1cc2c(Oc3ccc4[nH]c(C)cc4c3F)ncnc2cc1OCCCN1CCCC1 [Cediranib (AZD217), Cediranib] |  |  |  | 55.3041 |  |  | 76.9 | 11.9 | 83.5
31.3 | 31.3 | C[C@H](CCC(=O)O)[C@H]1CC[C@H]2[C@@H]3[C@H](O)C[C@@H]4C[C@H](O)CC[C@]4(C)[C@H]3CC[C@]12C [Chenodeoxycholic Acid] |  |  |  | 0.2284 |  |  | 0.372 | 1.21 | 2.27
27 | 27 | CN(C)CCCN1c2ccccc2CCc2ccc(Cl)cc21 [Clomipramine HCl] |  |  |  | 8.7601 |  |  | 7.72 | 0.662 | 2.3
30.1 | 30.1 | Clc1ccccc1C(c1ccccc1)(c1ccccc1)n1ccnc1 [Clotrimazole] |  |  |  | 1.657 |  |  | 0.937 | 0.234 | 0.787
75.6 | 75.6 | CN(C)c1ccc(C(=C2C=CC(=[N+](C)C)C=C2)c2ccc(N(C)C)cc2)cc1 [Crystal Violet] |  |  |  | 91.1305 |  |  | 94.3 | 94.9 | 95.4
26.7 | 26.7 | COc1cc2ncnc(Nc3ccc(F)c(Cl)c3)c2cc1NC(=O)/C=C/CN1CCCCC1 [Dacomitinib (PF299804, PF299), Dacomitinib] |  |  |  | 75.5856 |  |  | 86.8 | 22.7 | 84.1
